Measured values from patent publication US20260077071A1, “Targeted Delivery of Theranostic Agents” (Peter MacCallum Cancer Institute, priority 2022, published 2026).
Like-named read-outs stand apart in the source and are kept apart here. Each block holds one compound with its values, some of them ahead of it. Square brackets hold non-standard residues; d marks the D form. Peptide text beside a SMILES is read from it. Phe(4-CF3) = N[C@@H](Cc1ccc(C(F)(F)F)cc1)C(=O)O; Phe(3-F) = N[C@@H](Cc1cccc(F)c1)C(=O)O; 1Nal = N[C@@H](Cc1cccc2ccccc12)C(=O)O; 2Nal = N[C@@H](Cc1ccc2ccccc2c1)C(=O)O; NMeNle = CCCC[C@H](NC)C(=O)O; Sar = CNCC(=O)O

Target: T1, human full-length CCK-2 receptor (Homo sapiens, UniProt P32239)
T1 construct: stably transfected to over-express the human full-length CCK-2 receptor (A431-CCK-2R); expressed in transfected cells
T1 sequence (P32239 1-447): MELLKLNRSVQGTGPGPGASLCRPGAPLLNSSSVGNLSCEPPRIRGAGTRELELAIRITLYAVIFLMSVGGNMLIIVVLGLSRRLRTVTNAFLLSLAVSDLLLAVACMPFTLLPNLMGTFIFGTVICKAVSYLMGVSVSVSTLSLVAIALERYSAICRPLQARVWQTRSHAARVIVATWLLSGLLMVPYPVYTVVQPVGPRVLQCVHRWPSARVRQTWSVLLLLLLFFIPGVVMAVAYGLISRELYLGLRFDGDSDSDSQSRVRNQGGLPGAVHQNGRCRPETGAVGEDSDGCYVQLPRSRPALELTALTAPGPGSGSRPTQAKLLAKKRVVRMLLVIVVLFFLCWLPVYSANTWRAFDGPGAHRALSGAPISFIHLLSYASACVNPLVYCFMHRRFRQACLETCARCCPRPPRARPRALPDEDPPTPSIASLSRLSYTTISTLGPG
Assay: Competitive ligand binding against [^177Lu]Lu-DOTA-CP04 in A431-CCK-2R cells
Settings: for IC50: read-out: IC50; for loss of binding affinity / activity: D-Ala analogue versus baseline comparative example-1
Experimental: CCK-2 receptor binding experiments were conducted using A431 (human epidermoid carcinoma) cells stably transfected to over-express the human full-length CCK-2 receptor (A431-CCK-2R). As a negative control, A431 cells stably transfected with an empty vector were analysed simultaneously (A431-EV). A431 cells were maintained in DMEM (Gibco, Australia) media supplemented with 10% foetal calf serum and 250 μg/mL G418 as described previously (Aloj L, et al., J Nucl Med., 2004, Mar; 45(3), 485-94). The affinity of peptides for the CCK-2R was evaluated using competitive binding assays against [^177Lu]Lu-DOTA-CP04 in A431-CCK-2R cells. Briefly, 48 h before the experiment cells were plated at a density of 650,000 cells per well in 6 well plates. On the day of the experiment the peptides were diluted in DMEM supplemented with 1% foetal calf serum to at least 7 different concentrations (0-400 nM) and approximately 50,000 cpm of [^177Lu]Lu-DOTA-CP04 was added to each dilution. Cells were washed twice in ice-cold binding buffer (DMEM supplemented with 1% foetal calf serum) and resuspended in 1.5 mL of the pre-prepared compound mix before being incubated at 37° C. for 1 h. Post-incubation the media was removed and kept for analysis (unbound fraction) and the cells were washed twice in ice-cold binding buffer, which was pooled with the unbound fraction. Finally, 1 M NaOH was added to the cells and allowed to incubate for 5 min before lysates were collected (bound fraction). A small volume of lysate was kept aside to determine protein concentration using the Pierce® BCA protein assay kit (Thermo Fisher, Australia). All samples were analysed using the Perkin Elmer 2480 Wizard2™ gamma counter (PerkinElmer, Massachusetts, USA) and were normalised according to protein concentration. Half-maximal inhibitory concentrations (IC50) were determined using nonlinear regression calculated using GraphPad Prism Software (GraphPad Software, California, USA).
The compounds were evaluated for their ability to disrupt the binding between CCK-2 receptor (CCK-2R) and [^177Lu]Lu-DOTA-CP04 using the methodology described above and compared to comparative example-2 (FIG. 2; Table 5).

[1] = modified peptides based on Peptide C (Table 4)
[2] = D-Ala substituted peptides (Table 2), against [^177Lu]Lu-DOTA-CP04 in A431-CCK-2R cells

Compound: CCCC[C@@H](C(=O)N[C@@H](CC(=O)O)C(=O)N[C@@H](Cc1ccc2ccccc2c1)C(N)=O)N(C)C(=O)[C@H](Cc1c[nH]c2ccccc12)NC(=O)CN(C)C(=O)[C@H](Cc1ccc(O)cc1)NC(=O)[C@H](C)NC(=O)[C@@H](CCC(=O)O)NC(=O)[C@@H](CCC(=O)O)NC(=O)[C@@H](CCC(=O)O)NC(=O)[C@@H](CCC(=O)O)NC(=O)[C@@H](CCC(=O)O)NC(=O)[C@H](N)CCC(=O)O [L] (H-[dE][dE][dE][dE][dE][dE]AY[Sar]W[NMeNle]D[2Nal]-NH2; N-terminus assumed)
IC50 (substituted-phenylalanine peptides based on Cmp ex-1 (Table 3)): 0.6 nM

Compound: CCCC[C@@H](C(=O)N[C@@H](CC(=O)O)C(=O)N[C@@H](Cc1cccc2ccccc12)C(N)=O)N(C)C(=O)[C@H](Cc1c[nH]c2ccccc12)NC(=O)CN(C)C(=O)[C@H](Cc1ccc(O)cc1)NC(=O)[C@H](C)NC(=O)[C@@H](CCC(=O)O)NC(=O)[C@@H](CCC(=O)O)NC(=O)[C@@H](CCC(=O)O)NC(=O)[C@@H](C)NC(=O)[C@@H](CCC(=O)O)NC(=O)[C@H](N)CCC(=O)O [Peptide C] (H-[dE][dE][dA][dE][dE][dE]AY[Sar]W[NMeNle]D[1Nal]-NH2)
IC50 [2]: 0.18 nM | improvement upon the activity of CP04 (versus CP04): greater than 10 fold | affinity exceeding that of the comparative peptide (versus comparative example-1): ~2 fold

Compound: CCCC[C@@H](C(=O)N[C@@H](CC(=O)O)C(=O)N[C@@H](Cc1cccc2ccccc12)C(N)=O)N(C)C(=O)[C@H](Cc1c[nH]c2ccccc12)NC(=O)CN(C)C(=O)[C@H](Cc1ccc(O)cc1)NC(=O)[C@H](C)NC(=O)[C@@H](CCC(=O)O)NC(=O)[C@@H](CCC(=O)O)NC(=O)[C@@H](CCC(=O)O)NC(=O)[C@@H](CCC(=O)O)NC(=O)[C@@H](C)NC(=O)[C@H](N)CCC(=O)O [B] (H-[dE][dA][dE][dE][dE][dE]AY[Sar]W[NMeNle]D[1Nal]-NH2)
loss of binding affinity / activity: approx. 5 fold | IC50 [2]: 1.23 nM

Compound: CSCC[C@H](NC(=O)[C@H](Cc1c[nH]c2ccccc12)NC(=O)CNC(=O)[C@H](Cc1ccc(O)cc1)NC(=O)[C@H](C)NC(=O)[C@@H](CCC(=O)O)NC(=O)[C@@H](CCC(=O)O)NC(=O)[C@@H](CCC(=O)O)NC(=O)[C@@H](CCC(=O)O)NC(=O)[C@@H](CCC(=O)O)NC(=O)[C@@H](CCC(=O)O)NC(=O)CN1CCN(CC(=O)O)CCN(CC(=O)O)CCN(CC(=O)O)CC1)C(=O)N[C@@H](CC(=O)O)C(=O)N[C@@H](Cc1ccccc1)C(N)=O [CP04, reference compound]
decrease in affinity for the CCK-2 receptor (free peptide versus its linker/metal-complex (DOTA) form): greater than 3 fold

The remaining lines, values ahead:

IC50 [1]: 0.305 ± 0.013 nM
Compound: CCCC[C@@H](C(=O)N[C@@H](CC(=O)O)C(=O)N[C@@H](Cc1cccc(F)c1)C(N)=O)N(C)C(=O)[C@H](Cc1c[nH]c2ccccc12)NC(=O)CN(C)C(=O)[C@H](Cc1ccc(O)cc1)NC(=O)[C@H](C)NC(=O)[C@@H](CCC(=O)O)NC(=O)[C@@H](CCC(=O)O)NC(=O)[C@@H](CCC(=O)O)NC(=O)[C@@H](C)NC(=O)[C@@H](CCC(=O)O)NC(=O)[C@H](N)CCC(=O)O [U] (H-[dE][dE][dA][dE][dE][dE]AY[Sar]W[NMeNle]D[Phe(3-F)]-NH2; N-terminus assumed)

loss of binding affinity / activity: approx. 5 fold | IC50 [2]: 1.62 nM
Compound: CCCC[C@@H](C(=O)N[C@@H](CC(=O)O)C(=O)N[C@@H](Cc1cccc2ccccc12)C(N)=O)N(C)C(=O)[C@H](Cc1c[nH]c2ccccc12)NC(=O)CN(C)C(=O)[C@H](Cc1ccc(O)cc1)NC(=O)[C@H](C)NC(=O)[C@@H](C)NC(=O)[C@@H](CCC(=O)O)NC(=O)[C@@H](CCC(=O)O)NC(=O)[C@@H](CCC(=O)O)NC(=O)[C@@H](CCC(=O)O)NC(=O)[C@H](N)CCC(=O)O [F] (H-[dE][dE][dE][dE][dE][dA]AY[Sar]W[NMeNle]D[1Nal]-NH2)

IC50 [1]: 1.14 nM
Compound: CCCC[C@@H](C(=O)N[C@@H](CC(=O)O)C(=O)N[C@@H](Cc1ccc(C(F)(F)F)cc1)C(N)=O)N(C)C(=O)[C@H](Cc1c[nH]c2ccccc12)NC(=O)CN(C)C(=O)[C@H](Cc1ccc(O)cc1)NC(=O)[C@H](C)NC(=O)[C@@H](CCC(=O)O)NC(=O)[C@@H](CCC(=O)O)NC(=O)[C@@H](CCC(=O)O)NC(=O)[C@@H](C)NC(=O)[C@@H](CCC(=O)O)NC(=O)[C@H](N)CCC(=O)O [P] (H-[dE][dE][dA][dE][dE][dE]AY[Sar]W[NMeNle]D[Phe(4-CF3)]-NH2; N-terminus assumed)
